# Test results reported in patent publication US8415342B2, “Besifloxacin ophthalmic composition for the treatment or control of infection” (Bausch & Lomb Incorporated, priority 2008, dated 2013).
# Test: Predicted PK/PD ratios in tears with simulated TID dosing (Table 10)
# Parameters: species or system human
# Details: for Cmax/MIC90, Free / AUC24/MIC90, Free: tears, free besifloxacin (40% bound); for AUC24/MIC90, Free: predicted TID
# [1] = Staphylococcus aureus (MRSA-CR)
# [2] = Staphylococcus aureus (MSSA-CR)
# [3] = Staphylococcus aureus (all phenotypes)
compound,measurement,setting,value
"N[C@@H]1CCCCN(c2c(F)cc3c(=O)c(C(=O)O)cn(C4CC4)c3c2Cl)C1 [Besifloxacin, (R)-(+)-(3-amino-2,3,4,5,6,7-hexahydro-1H-azepin-1-yl)-8-chloro-1-cyclopropyl-6-fluoro-1,4,-dihydro-4-oxo-3-quinolinecarboxylic acid]","AUC24/MIC90, Total",,950
same,"Cmax/MIC90, Free",Haemophilus influenzae,6100
same,"AUC24/MIC90, Free",Haemophilus influenzae,"38,010"
same,"Cmax/MIC90, Free",[1],92
same,"AUC24/MIC90, Free",[1],570
same,"Cmax/MIC90, Free",[2],183
same,"AUC24/MIC90, Free",[2],1140
same,"Cmax/MIC90, Free",[3],732
same,"AUC24/MIC90, Free",[3],4561
same,"Cmax/MIC90, Free",Staphylococcus epidermidis,732
same,"AUC24/MIC90, Free",Staphylococcus epidermidis,4561
same,"Cmax/MIC90, Free",Streptococcus pneumoniae,2928
same,"AUC24/MIC90, Free",Streptococcus pneumoniae,"18,245"
same,"Cmax/MIC90, Total",human,153
